Key:
hOGA [1] = target: T1, hOGA (Homo sapiens, UniProt O60502); assay: Turnover by hOGA within SK-N-SH lysate; format: biochemical
T1 construct: started by addition of hOGA (WT, Full-length, expressed in E. coli. as previously described); made in house; host or cells: E. coli
T1 sequence (O60502 1-916): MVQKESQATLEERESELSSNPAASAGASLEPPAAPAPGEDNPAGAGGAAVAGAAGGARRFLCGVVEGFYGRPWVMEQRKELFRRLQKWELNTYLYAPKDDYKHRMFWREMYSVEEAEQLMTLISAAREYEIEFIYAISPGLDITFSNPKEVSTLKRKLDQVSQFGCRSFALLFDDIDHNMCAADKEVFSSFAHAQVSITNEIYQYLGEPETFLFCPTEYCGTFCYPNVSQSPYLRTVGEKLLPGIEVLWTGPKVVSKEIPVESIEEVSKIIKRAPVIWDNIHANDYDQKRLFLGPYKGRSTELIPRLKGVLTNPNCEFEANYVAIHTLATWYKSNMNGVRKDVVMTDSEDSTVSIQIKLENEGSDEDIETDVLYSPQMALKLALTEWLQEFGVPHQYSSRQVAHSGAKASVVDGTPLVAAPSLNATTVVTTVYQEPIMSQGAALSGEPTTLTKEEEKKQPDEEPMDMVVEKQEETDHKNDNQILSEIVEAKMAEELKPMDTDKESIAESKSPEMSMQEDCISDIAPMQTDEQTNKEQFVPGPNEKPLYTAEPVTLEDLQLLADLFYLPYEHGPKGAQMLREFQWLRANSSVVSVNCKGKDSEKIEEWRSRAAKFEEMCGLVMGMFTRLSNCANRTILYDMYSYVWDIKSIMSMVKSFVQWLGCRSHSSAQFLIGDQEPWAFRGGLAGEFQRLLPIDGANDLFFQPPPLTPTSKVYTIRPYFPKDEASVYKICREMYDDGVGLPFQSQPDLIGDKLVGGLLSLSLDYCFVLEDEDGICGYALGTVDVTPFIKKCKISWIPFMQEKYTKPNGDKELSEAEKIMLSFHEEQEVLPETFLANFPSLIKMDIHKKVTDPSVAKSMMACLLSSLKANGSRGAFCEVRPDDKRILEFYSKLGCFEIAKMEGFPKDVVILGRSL
Protocol: For cell lysates experiments, SK-N-SH cells were cultured in EMEM media supplemented with 10% FBS and Penicillin/Streptomycin antibiotics. Cells were collected, washed with PBS and lyzed using ice-cold NP-40 lysis buffer (TRIS-HCl 50 mM pH 7.4, NP-40 1%, NaCl 150 mM). After centrifugation, the supernatant was diluted in PBS. The quantity of lysate used in each measurement well (384-well plate) was equivalent to 25000 cells. […] Reactions were started by adding the substrate at a final concentration of 20 μM. This experiment was carried out in quadruplicates and the rates were determined by establishing a standard curve for EDANS fluorescence in the SK-N-SH lysate.
To evaluate the compatibility of the BABS design with complex cellular extracts, we also measured the turnover of GlcNAc-Br-BABS in SK-N-SH cell lysate in the presence of increasing concentrations of hOGA (FIG. 9). […] Buffer control consists of PBS supplemented to lysis buffer. […] Error bars represent standard deviation over quadruplicate.

human O-GlcNAcase (hOGA) = target: T2, human O-GlcNAcase (hOGA) (Homo sapiens, UniProt O60502); conditions: literature value (ref 39); cited from earlier work
T2 construct: started by addition of hOGA (WT, Full-length, expressed in E. coli. as previously described); made in house; host or cells: E. coli
T2 sequence (O60502 1-916): T1 sequence (O60502 1-916)

hOGA [2] = target: T1, hOGA; assay: Interrupted assay for determination of hemiacetal breakdown; format: biochemical; conditions: hemiacetal generated from the substrate; hOGA stopped after 1 min with Thiamet-G 100 μM
Protocol: For some experiments, fluorescence kinetic assays were performed using a Varian Cary Eclipse Spectrophotometer set for 335/493 nm excitation/emission wavelengths. Slits were set at 10 nm and the detector was set on Medium voltage. Enzymatic reactions with human OGA were carried out in PBS at 37° C. and were started by addition of hOGA (WT, Full-length, expressed in E. coli. as previously described) in a total volume of 160 μL (Starna sub-micro Fluorometer cuvette). For measurements of rates using different concentrations of substrates, a hOGA concentration of 100 nM was used. For hOGA titration, 25 μM of Glyco-BABS were added to various concentration of hOGA. For interrupted assay, reaction was started by addition of hOGA (680 nM final) in solutions of GlcNAc-BABS in PBS. […] For hemiacetal breakdown rate measurements, data after Thiamet-G addition was extracted and fitted using Prism software. EDANS standard curve was established using endpoint fluorescence measurements of serial dilutions of EDANS in the relevant buffer using the same instrument parameters. Inner-Filter effect measurements were carried out in cuvette by measuring fluorescence of several concentrations of EDANS in presence of various concentrations of GlcNAc-BABS. Kinetics with Glc-BABS and GBA enzymes (GBA1 and GBA3 purchased from R&D Systems), kinetics with GALC (R&D systems) and Gal-BABS, pH stability, quenching efficiency, some inner-filter effect experiments and lysates experiments were carried out using a Molecular Devices SpectraMax i3× plate reader. Emission/Excitation wavelengths were set at 350 and 490 nm respectively for EDANS/DABCYL Glyco-BABS and at 565 and 610 nm respectively for TAMRA/BHQ2 Glyco-BABS. Fluorescence measurements were performed using Costar 96-well black plates or Nunc 384-well black plates after sample preparation in 96-well mixing plates. For GBA1, the continuous assay was performed in citrate buffer (50 mM, pH 5.5) in the presence of 0.1% Triton, 1 mg/mL BSA and 0.14% taurodeoxycholate at 25° C. […]

[3] = pH stability of Glyco-BABS; format: physicochemical; conditions: 5 μM, up to 72 h, pH 2 to 10
From the text: One concern with the Glyco-BABS design was the known lability of acetals under acidic conditions that has been exploited in pH-sensitive prodrugs or linkers for drug delivery.^41,42 However, we recognized that carbohydrate anomeric acetals are chemically distinct from regular acetals. Due to stabilization by the endocyclic oxygen, we expected these bis-acetals would show stability across a range of physiological pH values. We therefore assessed the stability of the bis-acetal motif toward acid and base hydrolysis (FIG. 8). To do so, we tested the pH stability of 5 μM of GlcNAc-Br-BABS 1, GlcNAc-OH-BABS 2, Glc-OH-BABS 6 and Glc-H-BABS 7 at different pH over time. We prepared solutions at various pH by mixing 0.2 M KCl+0.1 M HCl with 0.2 M KCl+0.1 M KOH. Fluorescence of EDANS and Glyco-BABS solutions (5 μM, 45 μL) at different pH was measured at different time points in Nunc 384-well plates using a SpectraMax i3× plate reader. Data (triplicates) support the highly efficient quenching and the stability of these substrates over a wide range of pH.

In the case of `CCNC1=N[C@@H]2[C@@H](O)[C@H](O)[C@@H](CO)O[C@@H]2S1` [Thiamet-G, (3aR,5R,6S,7R,7aR)-2-(ethylamino)-3a,6,7,7a-tetrahydro-5-(hydroxymethyl)-5H-Pyrano[3,2-d]thiazole-6,7-diol, reference compound], the “inhibition of substrate turnover in SK-N-SH lysate” value (hOGA [1]; Thiamet-G 200 μM, substrate GlcNAc-Br-BABS 1) is reported as “completely inhibits”.

In the case of `CO[C@@H]1O[C@H](CO)[C@@H](O)[C@H](O)[C@H]1NC(C)=O` [methyl β-D-N-acetylglucopyranoside], the “second order rate constant with hOGA” value (human O-GlcNAcase (hOGA)) is given as 440 M⁻¹ s⁻¹.

With `CC(=O)N[C@H]1[C@H](O[C@@H](OCCOCCn2cc(CNC(=O)c3ccc(/N=N/c4ccc(N(C)C)cc4)cc3)nn2)[C@@](C)(Br)C(=O)NCCNc2cccc3c(S(=O)(=O)O)cccc23)O[C@H](CO)[C@@H](O)[C@@H]1O` [Compound 1, 5-((2-((2R,3R)-3-(((2S,3R,4R,5S,6R)-3-acetamido-4,5-dihydroxy-6-(hydroxymethyl)tetrahydro-2H-pyran-2-yl)oxy)-2-bromo-3-(2-(2-(4-((4-((E)-(4-(dimethylamino)phenyl)diazenyl)benzamido)methyl)-1H-1,2,3-triazol-1-yl)ethoxy)ethoxy)-2-methylpropanamido)ethyl)amino)naphthalene-1-sulfonic Acid] the “first order rate constant (k3) for hemiacetal breakdown” value (hOGA [2]) was 0.01 s⁻¹, the “pH stability (increase of fluorescence)” value [3] was “no significant increase of fluorescence” and the “turnover in SK-N-SH cell lysate with added hOGA” value (hOGA [1]; 20 μM substrate, 25° C., increasing hOGA) was “efficiently processed within lysates”.
